Reference: patent publication US12624003B2, “Carboxylic acid containing indanyl compounds for the treatment of neurodegenerative diseases” (Celgene Corporation, priority 2020, dated 2026)

Each compound was assayed against T1, S1P5 (Homo sapiens, UniProt Q9H228) (assay: [35S]-GTPγS functional binding assay on CHO-S1P5 membranes). Conditions: membranes of CHO cells expressing recombinant S1P5 receptors; measure of S1P5 agonism.
T1 construct: expressed in transfected cells; host or cells: CHO cells (membranes)
Type: biochemical
Procedure: CHO cells expressing recombinant S1P5 receptors were cultured in 500 cm^2 culture trays and, once confluent, rinsed and detached with cell-lifting buffer (10 mM HEPES, 154 mM NaCl, 6.85 mM EDTA, pH 7.4). Cells were then pelleted by centrifugation, resuspended, and homogenized in membrane preparation buffer (10 mM HEPES and 10 mM EDTA, pH 7.4) using a Polytron PT 1200E homogenizer (Kinematica, Luzern, Switzerland). Cellular proteins were pelleted by centrifugation at 48,000×g at 4° C. for 30 minutes. The resulting supernatant was discarded, and the pellet was re-suspended again in membrane preparation buffer, homogenized for a second time, and then centrifuged again as described above. The final cellular protein pellet was suspended in ice cold resuspension buffer (10 mM HEPES and 0.1 mM EDTA, pH 7.4), divided into aliquots, and stored at −80° C. until use.
Functional binding assays for [^35S]-GTPγS were performed in 96-well non-binding surface plates with a final volume of 200 μL. The test compounds were serially diluted in DMSO and added to assay plates using a Tecan D300E digital printer with a total volume of 0.4 μL. The control sphingosine-1-phosphate (S1P) was prepared separately by preparing a 400 μM stock solution from a 100 nmol pellet of SIP in 10 mM Na2CO3 with 2% s-cyclodextrin. The serial dilution of S1P was done using complete assay buffer (20 mM HEPES, 10 mM MgCl2, 100 mM NaCl, 1 mM EDTA, 0.1% fatty acid free bovine serum albumin (BSA), and 30 μg/mL saponin, pH 7.4) and transferred to wells already containing 0.4 μL DMSO. All the wells were then loaded to a total volume of 40 μL of complete assay buffer, except the non-specific binding (NSB) wells. For NSB wells, 40 μL/well of 50 μM GTPγS (Sigma Aldrich, cat #G8634, St. Louis, MO) was added to wells containing 0.4 μL of DMSO. The assay was started by the addition of 120 μL/well of CHO-S1P receptor membrane solution containing 40 μg/mL of membrane protein, 16.67 μM guanosine diphosphate (GDP; Sigma Aldrich, cat #G7127, St. Louis, MO), and 2.5 mg/mL of WGA PVT SPA beads in complete buffer. Assay plates were then sealed and incubated at room temperature with gentle agitation for 30 minutes. Next, 40 μL/well of 1 nM of [^35S]-GTPγS (PerkinElmer, cat #NEG030X250UC, Waltham, MA) in basic assay buffer (20 mM HEPES, 10 mM MgCl2, 100 mM NaCl, and 1 mM EDTA, pH 7.4) was added to the assay plates to yield a final concentration of […] and the plates were further incubated for 40 minutes at room temperature with gentle agitation. The assay was terminated by centrifugation of the plates at 1000 rpm for 3 minutes using an Eppendorf 5810R centrifuge (Eppendorf, Hamburg, Germany) and G protein bound radioactivity was quantitated using a MicroBeta2 microplate scintillation counter (PerkinElmer, Waltham, MA). As G protein bound radioactivity directly correlates to receptor activation and coupling to the G protein, this assay is a measure of S1P5 agonism.

T1 sequence (Q9H228 whole entry, species assumed): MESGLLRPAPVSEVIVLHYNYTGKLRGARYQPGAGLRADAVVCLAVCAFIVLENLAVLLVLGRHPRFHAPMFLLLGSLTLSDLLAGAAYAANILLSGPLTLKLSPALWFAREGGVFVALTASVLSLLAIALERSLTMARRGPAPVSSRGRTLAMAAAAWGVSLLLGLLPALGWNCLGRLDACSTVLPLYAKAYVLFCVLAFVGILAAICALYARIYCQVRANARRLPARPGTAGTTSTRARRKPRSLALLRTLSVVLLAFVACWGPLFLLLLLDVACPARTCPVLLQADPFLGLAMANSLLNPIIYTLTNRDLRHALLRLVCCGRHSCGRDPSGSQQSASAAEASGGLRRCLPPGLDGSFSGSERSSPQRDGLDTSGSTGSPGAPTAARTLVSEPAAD

| SMILES | EC50 [nM] |
| --- | --- |
| O=C(O)C1CCN(C2CCc3cc(CCc4ccccc4Cl)ccc32)CC1 (single isomer, unassigned) [Compound 25a, 1-(5-(2-chlorophenethyl)-2,3-dihydro-1H-inden-1-yl)piperidine-4-carboxylic acid] | 10 to 100 |
| O=C(O)C1CC2(C1)CN(C1CCc3cc(-c4ccc(C5CC5)c(Cl)c4)ccc31)C2 (stereo not drawn) [Compound 39, 2-(5-(3-chloro-4-cyclopropylphenyl)-2,3-dihydro-1H-inden-1-yl)-2-azaspiro[3.3]heptane-6-carboxylic acid] | 10 to 100 |
| O=C(O)[C@H]1CCN(C2CCc3cc(-c4ccc(C5CC5)c(Cl)c4)ccc32)C1 (single isomer, unassigned) [Compound 35a] | 10 to 100 |
| O=C(O)[C@@H]1CCCN(C2CCc3cc(C#Cc4cccc(F)c4)ccc32)C1 (single isomer, unassigned) [Compound 7b] | 100 to 1000 |
| O=C(O)C1CCN(C2CCc3cc(CCc4cccc(F)c4)ccc32)CC1 (single isomer, unassigned) [Compound 26a, 1-(5-(3-fluorophenethyl)-2,3-dihydro-1H-inden-1-yl)piperidine-4-carboxylic acid] | 100 to 1000 |
| O=C(O)C1CCN(C2CCc3cc(-c4cccc5c4CCC5)ccc32)CC1 (single isomer, unassigned) [Compound 45, 1-(2,2′,3,3′-tetrahydro-1H,1′H-[4,5′-biinden]-1′-yl)piperidine-4-carboxylic acid] | 100 to 1000 |
| O=C(O)[C@H]1CCCCN1C1CCc2cc(C#Cc3cccc(F)c3)ccc21 (single isomer, unassigned) [Compound 9a] | 1000 to 10000 |
| O=C(O)C1CCN(C2CCc3cc(C#Cc4ccccc4F)ccc32)CC1 (single isomer, unassigned) [Compound 6a, 1-(5-((2-fluorophenyl)ethynyl)-2,3-dihydro-1H-inden-1-yl)piperidine-4-carboxylic acid] | 10 to 100 |
| O=C(O)[C@H]1CCN(C2CCc3cc(-c4ccc(C5CC5)c(Cl)c4)ccc32)C1 (single isomer, unassigned) [Compound 35b] | 10 to 100 |
| O=C(O)C1CCN(C2CCc3cc(-c4ccc5ocnc5c4)ccc32)CC1 (single isomer, unassigned) [Compound 42, 1-(5-(benzo[d]oxazol-5-yl)-2,3-dihydro-1H-inden-1-yl)piperidine-4-carboxylic acid] | 1000 to 10000 |
| O=C(O)[C@@H]1CCCN(C2CCc3cc(C#Cc4cccc(F)c4)ccc32)C1 (single isomer, unassigned) [Compound 7a] | 10 to 100 |
| O=C(O)C1CCN(C2CCc3cc(-c4ccc5c(c4)CCC5)ccc32)CC1 (single isomer, unassigned) [Compound 44, 1-(2,2′,3,3′-tetrahydro-1H,1′H-[5,5′-biinden]-1-yl)piperidine-4-carboxylic acid] | 10 to 100 |
| O=C(O)C1CCN(C2CCc3cc(CCc4c(F)cccc4F)ccc32)CC1 (single isomer, unassigned) [Compound 28b, 1-(5-(2,6-difluorophenethyl)-2,3-dihydro-1H-inden-1-yl)piperidine-4-carboxylic acid] | 10 to 100 |
| O=C(O)[C@H]1CCN(C2CCc3cc(C#Cc4cccc(F)c4)ccc32)C1 (single isomer, unassigned) [Compound 13a] | 10 to 100 |
| O=C(O)[C@@H]1CCCCN1C1CCc2cc(C#Cc3cccc(F)c3)ccc21 (single isomer, unassigned) [Compound 8b] | 1000 to 10000 |
| O=C(O)C1CCN(C2CCc3cc(-c4ccc5c(c4)OCC5)ccc32)CC1 (single isomer, unassigned) [Compound 41, 1-(5-(2,3-dihydrobenzofuran-6-yl)-2,3-dihydro-1H-inden-1-yl)piperidine-4-carboxylic acid] | 100 to 1000 |
| O=C(O)C1CC2(C1)CN(C1CCc3cc(C#Cc4c(Cl)cccc4Cl)ccc31)C2 (stereo not drawn) [Compound 21, 2-(5-((2,6-dichlorophenyl)ethynyl)-2,3-dihydro-1H-inden-1-yl)-2-azaspiro[3.3]heptane-6-carboxylic acid] | 10 to 100 |
| CC1(C)CN(C2CCc3cc(C#Cc4cccc(F)c4)ccc32)CCC1C(=O)O (stereo not drawn) [Compound 5, 1-(5-((3-fluorophenyl)ethynyl)-2,3-dihydro-1H-inden-1-yl)-3,3-dimethylpiperidine-4-carboxylic acid] | 100 to 1000 |
| O=C(O)C1CCN(C2CCc3cc(-c4ccc(C5CC5)c(Cl)c4)ccc32)CC1 (single isomer, unassigned) [Compound 32a, 1-(5-(3-chloro-4-cyclopropylphenyl)-2,3-dihydro-1H-inden-1-yl)piperidine-4-carboxylic acid] | 100 to 1000 |
| O=C(O)C1CN(C2CCc3cc(-c4ccc(C5CC5)c(F)c4)ccc32)C1 (single isomer, unassigned) [Compound 31b, 1-(5-(4-cyclopropyl-3-fluorophenyl)-2,3-dihydro-1H-inden-1-yl)azetidine-3-carboxylic acid] | ≤ 10 |
| O=C(O)[C@@H]1CCN(C2CCc3cc(-c4ccc(C5CC5)c(F)c4)ccc32)C1 (single isomer, unassigned) [Compound 36a] | ≤ 10 |

More lines, now with the values ahead:

| EC50 [nM] | SMILES |
| --- | --- |
| ≤ 10 | O=C(O)C1CCN(C2CCc3cc(CCc4c(Cl)cccc4Cl)ccc32)CC1 (single isomer, unassigned) [Compound 22a, 1-(5-(2,6-dichlorophenethyl)-2,3-dihydro-1H-inden-1-yl)piperidine-4-carboxylic acid] |
| ≤ 10 | O=C(O)[C@@H]1CCN(C2CCc3cc(C#Cc4cccc(F)c4)ccc32)C1 (single isomer, unassigned) [Compound 14b] |
| ≤ 10 | O=C(O)C1CN(C2CCc3cc(-c4ccc(C5CC5)c(Cl)c4)ccc32)C1 (single isomer, unassigned) [Compound 30a, 1-(5-(3-chloro-4-cyclopropylphenyl)-2,3-dihydro-1H-inden-1-yl)azetidine-3-carboxylic acid] |
| ≤ 10 | O=C(O)C1CCN(C2CCc3cc(C#Cc4cccc(F)c4)ccc32)CC1 (single isomer, unassigned) [Compound 4b, 1-(5-((3-fluorophenyl)ethynyl)-2,3-dihydro-1H-inden-1-yl)piperidine-4-carboxylic acid] |
| ≤ 10 | O=C(O)C1CN(C2CCc3cc(C#Cc4c(Cl)cccc4Cl)ccc32)C1 (single isomer, unassigned) [Compound 18, 1-(5-((2,6-dichlorophenyl)ethynyl)-2,3-dihydro-1H-inden-1-yl)azetidine-3-carboxylic acid] |
| ≤ 10 | O=C(O)[C@]12C[C@H]1CN(C1CCc3cc(C#Cc4c(Cl)cccc4Cl)ccc31)C2 (stereo partly drawn) [Compound 15, (1R,5R)-3-(5-((2,6-dichlorophenyl)ethynyl)-2,3-dihydro-1H-inden-1-yl)-3-azabicyclo[3.1.0]-hexane-1-carboxylic acid] |
| ≤ 10 | O=C(O)C1CN(C2CCc3cc(-c4ccc(C5CC5)c(F)c4)ccc32)C1 (single isomer, unassigned) [Compound 31a, 1-(5-(4-cyclopropyl-3-fluorophenyl)-2,3-dihydro-1H-inden-1-yl)azetidine-3-carboxylic acid] |
| ≤ 10 | O=C(O)[C@@H]1CCN(C2CCc3cc(-c4ccc(C5CC5)c(Cl)c4)ccc32)C1 (single isomer, unassigned) [Compound 34a] |
| ≤ 10 | O=C(O)C1CN(C2CCc3cc(C#Cc4cccc(F)c4)ccc32)C1 (single isomer, unassigned) [Compound 19, 1-(5-((3-fluorophenyl)ethynyl)-2,3-dihydro-1H-inden-1-yl)azetidine-3-carboxylic acid] |
